Test results: patent US11021598B2, “Resin molded product, laminate, and decorative sheet” (TOPPAN PRINTING CO., LTD., priority 2017, dated 2021)

What was measured:
[1] = pKa of photostabilizer (half neutralization potential titration); assay type: physicochemical; conditions: non-aqueous titration, HNP calibration curve
Method: (Method of Measuring pKa of Photostabilizer)
A solution of 0.1 N perchloric acid/dioxane and acetonitrile:chloroform=1:1 was added dropwise to an organic reference substance having known pKa value in an aqueous system to determine the half neutralization potential (HNP) by titration in a non-aqueous system. A plot of the HNP calibration curve for pKa was prepared. Then, titration was performed for the photostabilizer in the same manner to determine a corresponding pKa from the plot of calibration curve.

[2] = pKa of ultraviolet absorber upon light absorption; assay type: physicochemical; conditions: when irradiated with light, absorption spectrum; for pKa: acetonitrile solution titrated with 70% perchloric acid
Method: (Method of Measuring pKa of Ultraviolet Absorber Upon Light Absorption)
The ultraviolet absorber was dissolved in acetonitrile so that the absorbance at the maximum absorption wavelength became 1, and bubbling with nitrogen was performed for 15 minutes. Then, 70% perchloric acid was dropped into the solution to change the pH of the solution. At that time, the absorption spectrum of the solution was measured, and, from the absorbance at λmax, the ultraviolet absorber at each pH and the ultraviolet absorber in which hydrogen ion is added to the nitrogen of the benzotriazole skeleton or triazine skeleton of the ultraviolet absorber were obtained. From the point where these values become equal, pKa of the ultraviolet absorber upon light absorption was determined. Measurement of the absorption spectrum was performed by using a U-4000 spectrophotometer manufactured by Hitachi High-Technologies Corporation.

CCCCCCCCCCCCCCN1C(=O)NC2(CC(C)(C)N(C(C)=O)C(C)(C)C2)C1=O [8-acetyl-3-tetradecyl-7,7,9,9-tetramethyl-1,3,8-triazaspiro[4.5]decane-2,4-dione]
pKa [1]: 3.5

CCCCCCCCOc1ccc(-c2nc(-c3ccc(C)cc3C)nc(-c3ccc(C)cc3C)n2)c(O)c1 [CYASORB UV-1164, 2,4-bis(2,4-dimethylphenyl)-6-(2-hydroxy-4-n-octyloxyphenyl)-1,3,5-triazine]
pKa [2]: -5

CC1(C)CC(OC(=O)CCCCCCCCC(=O)OC2CC(C)(C)NC(C)(C)C2)CC(C)(C)N1 [Chimassorb 770]
Photostabilizer pKa [1]: 9.0

CCCCCCCCCCCON1C(C)(C)CC(OC(=O)OC2CC(C)(C)N(OCCCCCCCCCCC)C(C)(C)C2)CC1(C)C [LA-81]
Photostabilizer pKa [1]: 5.5

CCCCCCCCON1C(C)(C)CC(OC(=O)CCCCCCCCC(=O)OC2CC(C)(C)N(OCCCCCCCC)C(C)(C)C2)CC1(C)C [Tinuvin 123]
Photostabilizer pKa [1]: 4.7
Photostabilizer pKa ([1]; listed as Tinuvin123): 4.5

CCCCN(c1nc(NCCO)nc(N(CCCC)C2CC(C)(C)N(OC3CCCCC3)C(C)(C)C2)n1)C1CC(C)(C)N(OC2CCCCC2)C(C)(C)C1 [Tinuvin 152]
Photostabilizer pKa [1]: 7.0

Cc1cc(-n2nc3ccc(Cl)cc3n2)c(O)c(C(C)(C)C)c1 [Tinuvin 326, 2-(5-chloro-2-benzotriazolyl)-6-tert-butyl-p-cresol]
pKa [2]: -4.9

CC(C)(C)CC(C)(C)c1ccc(O)c(-n2nc3ccccc3n2)c1 [Tinuvin 329]
Ultraviolet absorber pKa ([2]; acetonitrile, 70% perchloric acid): −4.9

CCCCC(Cc1cc(C(C)(C)C)c(O)c(C(C)(C)C)c1)(C(=O)OC1CC(C)(C)N(C)C(C)(C)C1)C(=O)OC1CC(C)(C)N(C)C(C)(C)C1 [Tinuvin PA144]
Photostabilizer pKa [1]: 9.5
